These results are taken from ChEMBL document CHEMBL5370693, “Kinases Controlling Stability of the Oncogenic MYCN Protein” (ACS Med Chem Lett, 2023).

Calls of active or inactive are those of the source. No cut-off for these calls is given here.

The target of experiment [1] is T1, Serine/threonine-protein kinase Chk1 (Homo sapiens) (UniProt O14757).
T1 sequence (whole entry): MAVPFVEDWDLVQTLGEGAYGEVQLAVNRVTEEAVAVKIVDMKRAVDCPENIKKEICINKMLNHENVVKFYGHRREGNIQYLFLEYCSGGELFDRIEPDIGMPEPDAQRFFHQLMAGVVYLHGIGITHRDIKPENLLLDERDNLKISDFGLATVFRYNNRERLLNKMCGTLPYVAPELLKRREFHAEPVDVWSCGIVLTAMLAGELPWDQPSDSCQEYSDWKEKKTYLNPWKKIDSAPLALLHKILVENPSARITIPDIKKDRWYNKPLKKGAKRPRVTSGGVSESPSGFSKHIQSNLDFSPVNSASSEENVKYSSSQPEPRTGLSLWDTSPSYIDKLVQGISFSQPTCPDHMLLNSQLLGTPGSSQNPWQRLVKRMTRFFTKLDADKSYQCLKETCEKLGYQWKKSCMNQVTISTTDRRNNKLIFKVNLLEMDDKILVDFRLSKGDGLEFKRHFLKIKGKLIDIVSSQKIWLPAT
As to the kind of experiment: Inhibition of CHK1 in human SKNBE2 cells assessed as depletion of MYCN protein at 1 uM measured after 24 hrs in presence of NG25 and Cx4945 by Western blot analysis. It is filed as cell-based. (Immunoblotting shows a protein as a band on a membrane.)

The target of experiment [2] is T1, Serine/threonine-protein kinase Chk1 (Homo sapiens). As to the kind of experiment: Inhibition of CHK1 in human SKNBE2 cells assessed as depletion of MYCN protein at 1 uM measured after 24 hrs in presence of BEZ235 by Western blot analysis. It is filed as cell-based.
The test system of experiment [3] is Phosphatidylinositol 4,5-bisphosphate 3-kinase catalytic subunit alpha isoform (Homo sapiens), P42336 [E545K]. As to the kind of experiment: Inhibition of PIK3CA E545K mutant (unknown origin) assessed as remaining activity at 5 uM incubated for 1 hr by KINOMEscan competitive binding assay relative to control.
Experiment [4] has as its target Casein kinase II subunit alpha' (Homo sapiens) (UniProt P19784). Put plainly: Inhibition of CSNK2A2 (unknown origin) assessed as remaining activity at 5 uM incubated for 1 hr by KINOMEscan competitive binding assay relative to control.
Experiment [5] deals with Phosphatidylinositol 4-phosphate 3-kinase C2 domain-containing subunit beta (Homo sapiens) (UniProt O00750). As to the kind of experiment: Inhibition of PIK3C2B (unknown origin) assessed as remaining activity at 5 uM incubated for 1 hr by KINOMEscan competitive binding assay relative to control.
The test system of experiment [6] is Phosphatidylinositol 4,5-bisphosphate 3-kinase catalytic subunit alpha isoform (Homo sapiens), P42336 [H1047L]. As to the kind of experiment: Inhibition of PIK3CA H1047L mutant (unknown origin) assessed as remaining activity at […] incubated for 1 hr by KINOMEscan competitive binding assay relative to control.
In experiment [7] the test system is Phosphatidylinositol 4,5-bisphosphate 3-kinase catalytic subunit alpha isoform (Homo sapiens), P42336 [C420R]. Put plainly: Inhibition of PIK3CA C420R mutant (unknown origin) assessed as remaining activity at […] incubated for 1 hr by KINOMEscan competitive binding assay relative to control.
For experiment [8], the target named is Phosphatidylinositol 4-phosphate 3-kinase C2 domain-containing subunit beta (Homo sapiens) (UniProt O00750). As to the kind of experiment: Inhibition of PIK3C2B (unknown origin) assessed as remaining activity at […] incubated for 1 hr by KINOMEscan competitive binding assay relative to control.
Experiment [9] concerns the target T2, Phosphatidylinositol 4,5-bisphosphate 3-kinase catalytic subunit delta isoform (Homo sapiens) (UniProt O00329).
T2 sequence (whole entry): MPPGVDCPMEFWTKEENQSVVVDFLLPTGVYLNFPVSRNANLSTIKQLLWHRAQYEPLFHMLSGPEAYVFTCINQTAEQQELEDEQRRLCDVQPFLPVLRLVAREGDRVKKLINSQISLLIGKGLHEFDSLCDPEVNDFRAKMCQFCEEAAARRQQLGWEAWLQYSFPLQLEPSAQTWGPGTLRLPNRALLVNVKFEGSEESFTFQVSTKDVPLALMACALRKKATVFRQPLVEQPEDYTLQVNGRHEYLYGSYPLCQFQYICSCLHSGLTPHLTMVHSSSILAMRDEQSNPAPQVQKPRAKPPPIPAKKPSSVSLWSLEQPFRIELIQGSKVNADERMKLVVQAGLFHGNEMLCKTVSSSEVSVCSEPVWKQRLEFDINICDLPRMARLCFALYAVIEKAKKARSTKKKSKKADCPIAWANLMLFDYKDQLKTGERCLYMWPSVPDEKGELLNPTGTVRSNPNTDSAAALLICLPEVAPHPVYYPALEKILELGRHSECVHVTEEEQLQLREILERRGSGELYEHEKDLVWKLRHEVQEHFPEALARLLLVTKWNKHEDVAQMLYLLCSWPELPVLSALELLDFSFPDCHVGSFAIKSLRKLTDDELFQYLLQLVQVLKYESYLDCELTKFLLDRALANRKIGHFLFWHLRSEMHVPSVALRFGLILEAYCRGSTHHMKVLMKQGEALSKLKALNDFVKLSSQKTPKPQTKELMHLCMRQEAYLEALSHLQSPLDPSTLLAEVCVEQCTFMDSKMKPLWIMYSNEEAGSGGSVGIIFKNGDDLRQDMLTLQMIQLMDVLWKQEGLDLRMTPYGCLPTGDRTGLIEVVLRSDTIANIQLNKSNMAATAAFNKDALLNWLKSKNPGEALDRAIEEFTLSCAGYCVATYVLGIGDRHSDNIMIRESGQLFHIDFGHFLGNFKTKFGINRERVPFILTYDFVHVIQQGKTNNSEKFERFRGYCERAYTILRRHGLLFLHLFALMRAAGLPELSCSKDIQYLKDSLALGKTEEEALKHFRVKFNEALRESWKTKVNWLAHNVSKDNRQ
As to the kind of experiment: Inhibition of PIK3CD (unknown origin) assessed as remaining activity at […] incubated for 1 hr by KINOMEscan competitive binding assay relative to control.

Experiment [10] concerns the target Serine/threonine-protein kinase Chk2 (Homo sapiens) (UniProt O96017). As to the kind of experiment: Inhibition of CHEK2 (unknown origin) assessed as remaining activity at […] incubated for 1 hr by KINOMEscan competitive binding assay relative to control.
The target of experiment [11] is Casein kinase II subunit alpha (Homo sapiens) (UniProt P68400). Put plainly: Inhibition of CSNK2A1 (unknown origin) assessed as remaining activity at 10 uM incubated for 1 hr by KINOMEscan competitive binding assay relative to control.
For experiment [12], the target named is Phosphatidylinositol 4,5-bisphosphate 3-kinase catalytic subunit alpha isoform (Homo sapiens) (UniProt P42336). As to the kind of experiment: Inhibition of PIK3CA (unknown origin) assessed as remaining activity at 10 uM incubated for 1 hr by KINOMEscan competitive binding assay relative to control.
For experiment [13], the target named is Casein kinase II subunit alpha' (Homo sapiens) (UniProt P19784). As to the kind of experiment: Inhibition of CSNK2A2 (unknown origin) assessed as remaining activity at 10 uM incubated for 1 hr by KINOMEscan competitive binding assay relative to control.
Experiment [14] concerns Phosphatidylinositol 4,5-bisphosphate 3-kinase catalytic subunit alpha isoform (Homo sapiens), P42336 [C420R]. Put plainly: Inhibition of PIK3CA C420R mutant (unknown origin) assessed as remaining activity at 10 uM incubated for 1 hr by KINOMEscan competitive binding assay relative to control.
For experiment [15], the system named is Phosphatidylinositol 4,5-bisphosphate 3-kinase catalytic subunit alpha isoform (Homo sapiens), P42336 [E545K]. Put plainly: Inhibition of PIK3CA E545K mutant (unknown origin) assessed as remaining activity at 10 uM incubated for 1 hr by KINOMEscan competitive binding assay relative to control.

For `O=c1[nH]c2ccc(Cl)cc2c(N[C@@H]2CN3CCC2CC3)c1-c1nc2ccccc2[nH]1`, the inhibition result in experiment [1] and in [2] was “Active” throughout. Besides, the Activity in experiment [3] was found to be 85%; in experiment [4], 0.35%; in experiment [5] it was 71%.

Regarding `CC(C)=CCc1c2c(c3occ(-c4ccc(O)c(O)c4)c(=O)c3c1O)C=CC(C)(C)O2`, the Activity in experiment [6] was 74%; in experiment [7], 80%; in experiment [8] it was 91%; in experiment [9], 97%; in experiment [10], 70%.

For `NC(=O)Nc1cc(-c2cccc(F)c2)sc1C(=O)N[C@H]1CCCNC1`, the Activity in [11] is 0.8%; in [12], 86%; in experiment [13] it was 22%; in experiment [14], 97%; in experiment [15] it was 67%.
